Experiments:
[1] = 81.5 kPa, Liquid
[2] = refractive index (Na D-line) (dimensionless); conditions: 298.15 K; 81.5 kPa; Liquid; Standard Abbe refractometry
[3] = xn = mol fraction of the nth substance listed; conditions: 81.5 kPa, Liquid

C[S+](C)[O-] [dimethyl sulfoxide]
[1]
Conditions	mass density [kg/m3]
293.15 K	1100.41
303.15 K	1090.37
313.15 K	1080.34
323.15 K	1070.3
333.15 K	1060.27

Conditions	refractive index
[2]	1.4767

O [water] + CC#N
[3], x1 = 1
Conditions	mass density [kg/m3]
323.15 K	988.03
333.15 K	983.19

CC#N [acetonitrile] + C[S+](C)[O-]
[3], x1 = 1
Conditions	mass density [kg/m3]
293.15 K	781.97
303.15 K	771.15
313.15 K	760.2
323.15 K	749.12
333.15 K	737.87

C[S+](C)[O-] [dimethyl sulfoxide] + O
mass density [kg/m3], [3]
Conditions	293.15 K	303.15 K	313.15 K	323.15 K	333.15 K
x2 = 0	1100.41	1090.37	1080.34	1070.3	1060.27
x2 = 0.0568	1100.94	1090.97	1081.01	1071.03	1061.04
x2 = 0.1605	1101.91	1092.1	1082.26	1072.41	1062.5
x2 = 0.2252	1102.54	1092.83	1083.1	1073.32	1063.49
x2 = 0.3187	1103.26	1093.73	1084.18	1074.52	1064.79
x2 = 0.3953	1103.54	1094.31	1084.89	1075.37	1065.74
x2 = 0.4582	1103.48	1094.25	1084.95	1075.54	1066
x2 = 0.5473	1102.05	1093.11	1084.03	1074.8	1065.41
x2 = 0.6473	1097.2	1088.67	1079.97	1071.08	1062
x2 = 0.7213	1089.55	1081.52	1073.28	1064.82	1056.12
x2 = 0.7997	1075.48	1068.31	1060.87	1053.13	1045.11
x2 = 0.8828	1051.12	1045.47	1039.4	1032.81	1024.92
x2 = 0.9632	1016.98	1013.46	1009.19	1003.92	998.73

— the NIST ThermoML archive (doi:10.1021/je700645p)
